Source: patent US20240024280A1, “SENOTHERAPEUTIC SUBSTANCE” (BIONEXA S.R.L, priority 2020, published 2024)

System: senescent MCF7 cells
Test: Senolytic activity on doxorubicin-induced senescent MCF7 cells (crystal violet cell survival)
Type: cell-based, human
Conditions: 72 h treatment; vitamin C and palmitic acid administered alone at the same doses investigated
Procedure: Briefly, senescence of MCF7 human mammary epithelium cells (human breast adenocarcinoma cells, ATCC® HTB-22™) was induced in vitro by treatment with doxorubicin (for 24 h), at a non-apoptotic concentration (200 nM), and subsequent cell recovery (in optimal culture medium, without treatments) for 10 days. The successful conversion to the senescent cell phenotype was confirmed by morphological changes (flattening and cell enlargement) and positivity for lysosomal beta-galactosidase (β-GAL). The SA-β-GAL (senescence-associated p-GAL) senescence assay was performed with the SA-β-Gal Staining Kit (Cell Signaling Technology, Inc., Danvers, MA). In this case, after fixation with […] for 15 min at room temperature, the senescent cells were quantified by calculating the percentage of SA-β-GAL positive cells (colored blue) present in culture, examining ≥200 cells per well with the phase contrast microscope EVOS XL Cell Imaging System (Thermo Fisher; objective, 40×). […] At the end of the treatments, cell survival was quantified by crystal violet staining. […] After further washing with water (3×), 100 μl of acetic acid (10%) were added per well and the absorbance (λ=590 nm) measured with a Synergy spectrophotometer (AHSI). […] Senolytic activity was expressed as % of senescent cells eliminated with respect to the control condition (DMSO). […]

Compound | senolytic effects (in words)
CCCCCCCCCCCCCCCC(=O)O [palmitic acid] | absence of significant senolytic effects
O=C1O[C@H]([C@@H](O)CO)C(O)=C1O [vitamin C, L-Ascorbic Acid] | absence of significant senolytic effects
